From patent US9066947B2, “Indolyl-substituted pyrazino[1,2-b]isoquinolines for cancer treatment” (Everest Biosciences, Inc., priority 2009, dated 2015)

Legend:
CD31 = test: Quantification of angiogenesis by CD31 immunohistochemistry in PC-3 xenograft tumors; format: in vivo, human; details: versus Control tumors (FIG. 6)
Method: B. Immunohistochemical analysis of tumors from the Control mice and mice treated with Substance X for the expression of CD31. Tumor sections (Control) or (Substance X) were stained with antibody against CD31. (B). Regions of high vascular density at centre or the edge areas within the tumors were examined. The number of CD31-positive pixels per microscopic field was recorded. At least two sections per tumor and three views per section were determined. The statistical T-test was performed and was two-sided and P value less than 0.05 was considered to be statistically significant, P value less than 0.01 is labelled as two asterisks.
Immunohistochemistry on tumor tissues was performed as previously described (Wegiel B, Bjartell A, Ekberg J, Gadaleanu V, Brunhoff C and Persson J L: A role for cyan AI in mediating the autocrine expression of vascular endothelial growth factor in prostate cancer. Oncogene 24: 6385-6393, 2005) by using antibodies to human CD-31 (Dako, Goistrup, Denmark A/S). Antirabbit peroxidase-conjugated secondary antibodies were applied. Diaminobenzidine colorimetric reagent solution (Dako) was used. […] For analysis of tumor angiogenesis, tumor sections stained with antibody against CD3I were examined and quantified. […] The number of CD31-positive pixels per microscopic field was recorded. At least two sections per tumor and three views per section were determined.

VEGF receptor 2 = test: Immunohistochemical analysis of VEGF receptor 2 expression in PC-3 xenograft tumors; format: in vivo, human; details: versus Control mice (FIG. 5)
Method: (§1) FIG. 5: Effect of Substance X on Expression of VEGF and VEGF Receptor 2 Immunohistochemical analysis of VEGF and VEGF receptor 2 was performed in tumors from the Control mice and the mice treated with Substance X. The representative pictures are shown. Tumor sections (Control) or (Substance X) were stained with antibody against human VEGF and VEGF Receptor 2.
(§2) The treatment of the compound of Example 1 (also referred to herein as “Substance X”) or PBS containing 5% DMSO (vehicle) as Control was started when tumors reached the desired size as described above. In the first experimental setting, Substance X was administered intravenously once every other day. […] Tumor growth was assessed periodically as described in Results. […] The sections were stained with hematoxylineosin (H&E) or imunohistochemical stained with antibodies and analyzed under an optical microscope. […]
(§3) Immunohistochemistry on tumor tissues was performed as previously described (Wegiel B, Bjartell A, Ekberg J, Gadaleanu V, Brunhoff C and Persson J L: A role for cyan AI in mediating the autocrine expression of vascular endothelial growth factor in prostate cancer. Oncogene 24: 6385-6393, 2005) by using antibodies to human CD-31 (Dako, Goistrup, Denmark A/S). […] For analysis of tumor angiogenesis, tumor sections stained with antibody against CD3I were examined and quantified. […]

PC-3 tumors [1] = test: PC-3 prostate cancer xenograft mouse model of tumor growth and metastasis; format: in vivo, athymic NMRI nude mice
From the text: Athymic NMRI nude mice between 6-8 weeks old (Taconic; Bomholt, Denmark) were used. Prostate cancer xenograft mouse model was created by implanting hormone-independent PC3 tumor cells subcutaneously into athymic nude mice as previously described (Wegiel B, Bjartell A, Tuomela J, et al.: Multiple cellular mechanisms related to cyclin Al in prostate cancer invasion and metastasis. Journal of the National Cancer Institute 100: 10221036, 2008).
PC-3 cells were purchased from American Type Culture Collection (Manassas, V A) and cultured in RPMI-1640 supplemented with 10% Fetal Bovine Serum. PC-3 cells at 1×10^6/per mouse were used. The mice were divided into three groups (6 mice per group). The first group allowed tumors to grow between 170-400 mm^3 in size before starting the treatment. The second group allowed tumors to grow between 550-650 mm^3 in size before starting the treatment. The third group allowed tumors to grow between 700-800 mm^3 in size before starting the treatment. The tumor diameters were measured twice weekly using calipers. The tumor volumes were calculated using an equation of a*(b2/2) where a and b represent the length and width of the tumor, respectively.
The treatment of the compound of Example 1 (also referred to herein as “Substance X”) or PBS containing 5% DMSO (vehicle) as Control was started when tumors reached the desired size as described above. In the first experimental setting, Substance X was administered intravenously once every other day. In the second experimental setting, Substance X was administrated orally once every other day. Tumor growth was assessed periodically as described in Results. The mice were sacrificed after treatment by euthanization via isofluorene inhalation. Lymph node, liver, lung, spleen and femurs were removed from each mouse. Half of the tumor tissues were used for histology and immunohistochemical analysis. For histology analysis, tissues were fixed in 4% paraformaldehyde and embedded in paraffin. The sections were stained with hematoxylineosin (H&E) or imunohistochemical stained with antibodies and analyzed under an optical microscope. The other half of the tissues were used for protein analysis and thus were snapfrozen in liquid nitrogen. The body weights of the mice on the first and last day of the treatment were collected and compared. Tumor invasion and metastasis were examined in various tissues from the sacrificed mice.
For a comparison study, mice with tumors at 190-250 mm^3 in size were treated with the cytotoxic drug Etoposide (Sigma) at a dose of 20 mg/kg via IV injection once every other day. The tumor size was measured as described in the Results. Three mice were treated with Etoposide or the vehicle as Control. The mice were sacrificed and the tissues were collected as described above.

VEGF = test: Immunohistochemical analysis of VEGF expression in PC-3 xenograft tumors; format: in vivo, human; details: versus Control mice (FIG. 5)
Method: as §1, §2, §3

PC-3 tumors [2] = test: PC-3 prostate cancer xenograft mouse model of tumor growth and metastasis; format: in vivo, athymic NMRI nude mice; details: tumors 500-600 mm3 at start, 40 mg/kg intravenous injection, day 20 (FIG. 2)
[3] = Safety in PC-3 tumor-bearing xenograft mice; format: in vivo; details: PC-3 tumor-bearing mice, 40 mg/kg daily for 30 days
Method: (§4) For the assessment of toxicity of Substance X, healthy mice were treated with Substance X by intravenous injection at a dose of 100 mg/kg or 200 mg/kg once every other day for 13 days. Body weight of each mouse was measured periodically from Day 1 to Day 13 of the treatment. Cage-side observations including: mortality, moribundity, food consumption and activities were performed once every other day. Blood samples were taken on Day 1 and Day 13 for measurement of blood cell counts. To assess toxicity of Substance X on mice with tumors, mice bearing subcutaneous PC-3 tumors were treated with Substance X at a high dose of 200 mg/kg once every other day for 19 days. Body weight was measured and cage-side observations were performed once every other day. Lymph node, liver, lung, spleen and femurs were removed from each mouse and were examined. Toxicity of Substance X was also assessed in tumor-bearing mice treated with 80 mg/kg of Substance X daily as described above.
We then tested the high dose of Substance X in PC-3 xenograft mice, thereby mimicking its effect on prostate cancer patients. We generated mouse xenograft of human PC-3 tumors by subcutaneous implantation of tumor cells into nude mice. We further tested safety of the dose of 40 mg/kg which generated significant anti-tumor activity in the xenograft mouse model.

[4] = Basic toxicity study in healthy mice; format: in vivo; details: for cage-side observations (food consumption, daily activities, toxic effect) / histology of livers and kidney: 13 days
Method: as §4

[5] = tested on: PC-3 prostate cancer cells; test: Cell proliferation assay (trypan blue viable cell count) and IC50 determination; format: cell-based, human; details: PC-3 cells
Method: All new synthesized compounds and Etoposide were first dissolved in 100% DMSO at initial concentration of 100 mM, and then diluted at final concentration of 200 uM in culture medium. Commercial form of Avastin (25 mg/ml) was diluted to appropriate concentrations in culture medium.
Hormone-independent and metastatic PC-3 prostate cancer cells were purchased from the American Type Culture Collection (Manassas, Va., USA) and cultured in RPMI-1640 supplemented with 10% fetal bovine serum. Etoposide was purchased from Sigma, Avastin from Roche.
For cell counting a total of 6×10^4 cells at a density of 0.3×10^6/ml were seeded in 96-well plate. The cells were treated with compounds, Etoposide or Avastin as positive controls at 1 uM, 5 uM, 10 uM, 20 uM, 50 uM, 100 uM for 48 hours. For Avastin 5 uM, 20 uM and 50 uM concentrations were used. The cells were labeled with trypan blue and the viable cells were quantified.

[6] = healthy mice, 100 mg/kg i.v. once every other day

With `CN1CC(=O)N2[C@H](c3c[nH]c4ccccc34)c3cc4c(cc3C[C@H]2C1=O)OCO4` [Substance X, (5S,9aS)-5-(1H-Indol-3-yl)-8-methyl-7,8,9a,10-tetrahydro-5H-1,3-dioxa-5a,8-diaza-cyclopenta[b]anthracene-6,9-dione] the “CD31 expression and number of CD31-expressing vessels in tumors” value (CD31) was “statistically significant decrease”, the “expression of VEGFR2 in tumors” value (VEGF receptor 2) was “significantly down-regulated” and the “tumor size after switch to oral administration” value (PC-3 tumors [1]; 40 mg/kg i.v. for 20 days, from day 21 40 mg/kg oral, versus continuous i.v.) was “slightly larger tumor size than the mice treated by continuous intravenous injection”. For the same compound, the “tumor growth (large and invasive tumors, longer treatment)” value (PC-3 tumors [1]; 40 mg/kg intravenous injection for 30 days) was “inhibited throughout the treatment period and the tumors shrank significantly at the end of the treatment”, the “infiltration of tumor cells into secondary sites (metastasis)” value (PC-3 tumors [1]; 40 mg/kg, end of study, histology and immunohistochemical analysis) was “no infiltration of tumor cells into secondary sites could be detected” and the “size of tumors in whole-tumor histology sections” value (PC-3 tumors [1]; VEGF receptor 2 stained sections, versus Control mice (FIG. 6A)) was “smaller than that from the Control mice”. For the same compound, the oral bioavailability (PC-3 tumors [1]; inferred from tumor size after oral versus intravenous 40 mg/kg) was “orally bioavailable, yet the oral bioavailability is lower than intravenous injection”, the tumor growth (PC-3 tumors [1]; tumors 190-240 mm3 at start, 20 mg/kg intravenously, 21 days) was “tumor shrank” and the “tumor growth, oral administration throughout” value (PC-3 tumors [1]; tumors 300-350 mm3 at start, 40 mg/kg oral (FIG. 3)) was “able to inhibit the tumor growth, although the effect was not as strong as intravenous injection”. The “tumor growth, comparison of Etoposide and Substance X” value (PC-3 tumors [1]; tumors about 250 mm3, IV once every other day for 14 days, Etoposide 20 mg/kg, Substance X 40 mg/kg (FIG. 4)) was “stronger inhibitory effect on tumors as compared to Etoposide”, the “expression of VEGF in tumors” value (VEGF) was “significantly down-regulated” and the “tumor growth (large tumors)” value (PC-3 tumors [2]) was “did not grow but showed a slight decrease in size”. For the same compound, the body weights [3] was “remained constant throughout the period of treatment”, the “cage-side observations (food consumption, daily activities, toxic effect)” value (from here on “cage-side observations”) [3] was “no abnormality on food consumption and/or daily activities, or any other observable toxic effect” and the “histology of livers and kidney” value [3] was “no abnormality in histology”. The “cage-side observations” value ([4]; 200 mg/kg once every other day) was “no abnormality on food consumption and daily activities, or any observable toxic effect”, the “histology of livers and kidney” value ([4]; 200 mg/kg once every other day) was “no abnormality in histology” and the body weights ([4]; 200 mg/kg once every other day, 13 days (FIG. 1B)) was “steady throughout the study period”. For the same compound, the “cage-side observations” value [4, 6] was “no abnormality on food consumption and daily activities, or any observable toxic effect”, the “histology of livers and kidney” value [4, 6] was “no abnormality in histology” and the “change in body weight” value ([4]; healthy mice, 100 mg/kg i.v. once every other day, 13 days (FIG. 1A)) was “no significant change in body weight”. The IC50 ([5]; Homo sapiens, viable cells after 48 hours, read-out: IC50 for cell growth inhibition) was 30 µM and the “concentration from which statistically significant cell growth inhibition started” value ([5]; 48 hours) was 5 µM.
